Values quoted from earlier work in patent US6335361B1, “Method of treating benign forgetfulness” (Juvenon Inc., priority 1999, dated 2002).
Where two headings read alike, the source gives them in different places. Blank lines part the entries; values can stand above or below the molecule they belong to.

How the values were obtained:
mitochondria [1] = test system: mitochondria
[2] = woman deficient in Q10, 150 mg/kg
mice = conditions: male mice, life-long supplementation
[3] = test system: oxidative phosphorylation in skeletal muscles and brains; conditions: patients with mitochondrial cytopathies due to enzyme defects
striatal nerves = conditions: mice, Q10 diet four weeks before and one week after MPTP
[4] = daily supplements up to 200 mg for 6-12 months and 100 mg daily for up to 6 y
mitochondria [5] = conditions: through action in the mitochondria
[6] = test system: human plasma LDL phospholipids; conditions: healthy Finnish men and women, Q10 supplementation
oxidant production = conditions: carnitine supplementation
[7] = older adults 67-80 years, 8 weeks
[8] = men over 60, 5 days

Compound: CC(=O)O[C@H](CC(=O)[O-])C[N+](C)(C)C [ALC, acetyl-L-carnitine]
age-related decrease in cardiolipin, mtDNA transcription and membrane potential (mitochondria [1]): reverse
age-related dysfunction of carnitine-acetyl-carnitine exchange across the inner mitochondrial membrane (mitochondria [1]): slow or reverse

Compound: C[N+](C)(C)C[C@H](O)CC(=O)[O-] [L-carnitine]
age-related decrease in cardiolipin, mtDNA transcription and membrane potential (mitochondria [1]): reverse
age-related dysfunction of carnitine-acetyl-carnitine exchange across the inner mitochondrial membrane (mitochondria [1]): slow or reverse

Compound: COC1=C(OC)C(=O)C(C/C=C(\C)CC/C=C(\C)CC/C=C(\C)CC/C=C(\C)CC/C=C(\C)CC/C=C(\C)CC/C=C(\C)CC/C=C(\C)CC/C=C(\C)CCC=C(C)C)=C(C)C1=O [Q10, Coenzyme Q10]
clinical response [2]: rapidly improved
lifespan (mice): did not prolong or shorten
Q10 levels in kidney, heart and brain (rats; Q10 supplementation): not affected
lifespan (rats; male rats, life-long supplementation): did not prolong or shorten
plasma and liver levels (rats; supplemented rats): 2.6-8.4 times higher
oxidative phosphorylation in skeletal muscles and brains [3]: marked improvement
dopamine, higher than control diet (striatal nerves): 37%
more dense neurons than control diet (striatal nerves): 62%
effect on doxorubicin-induced oxidant production and mtDNA deletions (cardiac tissue; cardiac tissue): blocks the effects of doxorubicin
adverse effects [4]: No important adverse effects
programmed cell death, or apoptosis (mitochondria [5]): appears to block
peroxyl radical-trapping capacity [6]: doubled

Compound: O=C(O)CCCC[C@@H]1CCSS1 [R-α-alipoic acid, R-α-lipoic acid]
ambulatory activity of aged rats (aged rats; aged rats): triple
age-related decline in mitochondrial membrane potential (aged rats; rat, in vivo): restore
age-related decrease in oxygen consumption (aged rats; rat, in vivo): reverse
age-related increase in oxidants (aged rats; rat, in vivo): significantly lower
glutathione and ascorbic acid levels (aged rats; rat, in vivo): to youthful levels

cell antioxidants (oxidant production): decreased cell antioxidants markedly
increase of oxidant production (oxidant production): 30%
Compound: C[N+](C)(C)CC(O)CC(=O)[O-] (stereo not drawn) [carnitine]

Compound: CN(CC(=O)O)C(=N)N [creatine]
safety (1.5 g-25 g/day for at least a year): safe
adverse effects (athletes, up to 75 grams a day for years, aside from weight gain): without known adverse effects
skeletal muscle strength and endurance (older individuals (40-73), 20 g/day, one week): increased
1- and 12-repetitions maxima, effect of creatine supplementation [7]: no beneficial effect
time to exhaustion (phosphocreatine (PCr); both groups combined): increased
increase of resting PCr (phosphocreatine (PCr); middle-aged group (50-year-olds), P<0.05): 30%
mean initial PCr resynthesis rate (phosphocreatine (PCr); middle-aged group, P<0.05): increased significantly
increase of resting PCr (phosphocreatine (PCr); young group (30-year-olds), P<0.05): 15%
isokinetic performance and body mass [8]: only small increases
isometric strength [8]: no effect

Compound: COc1cccc2c1C(=O)c1c(O)c3c(c(O)c1C2=O)C[C@@](O)(C(=O)CO)C[C@@H]3O[C@H]1C[C@H](N)[C@H](O)[C@H](C)O1 [doxorubicin]
mitochondrial oxidant production (cardiac tissue; doxorubicin by itself): stimulates
mtDNA deletions in cardiac tissue (cardiac tissue; doxorubicin by itself): marked increase

Compound: COc1c(O)c(C)c(C/C=C(\C)CC/C=C(\C)CC/C=C(\C)CC/C=C(\C)CC/C=C(\C)CC/C=C(\C)CC/C=C(\C)CC/C=C(\C)CC/C=C(\C)CCC=C(C)C)c(O)c1OC [ubiquinol-10]
oxidative damage to DNA of human lymphocytes (human lymphocytes): appears to protect
